The values below come from patent US20250241974A1, “COMPOSITIONS AND METHODS FOR WOUND HEALING” (University of Maine System Board of Trustees, priority 2024, published 2025).

Structures are written as SMILES.

The test has as its system excision wounds. Description: Wound healing assay with CNF hydrogel formulation (Example IV). The format is in vivo. Particulars: citric acid as cross-linking agent.

Regarding `O=C(O)CC(O)(CC(=O)O)C(=O)O` [citric acid], the “effect on all parameters studied” value is given as “does not have any effect”.
